From patent US20250361214A1, “TRIAZINE LIPIDS, LIPID SYNTHESIS, AND METHODS FOR INHIBITING CANONICAL NFKB TRANSCRIPTIONAL ACTIVITY” (University of Kentucky Research Foundation, priority 2022, published 2025)

Experiments:
[1] = test system: murine macrophages; conditions: incubation of murine macrophages; cited from earlier work
[2] = test system: canonical NFKB; test: THP-1-Blue NFKB reporter (SEAP) assay; assay type: cell-based, human; conditions: THP-1-Blue cells stimulated with TNFα
[3] = test system: plasmid DNA; test: Gel shift assay using plasmid DNA; assay type: binding; conditions: 1:1 molar ratio cationic lipid and DOPE, agarose gel
Experimental: Gel Shift Assays Using Plasmid DNA. Nanoparticles consisting of a 1:1 molar ratio of cationic lipid/DOPE were rehydrated in a 20 mM HEPES solution at pH 4. […] The gels were visualized and photographed using a Bio-Rad ChemiDoc XR system using the manufacturer's software.

[4] = test system: cIAP; conditions: cited from earlier work

CC[C@H]1OC(=O)[C@H](C)[C@@H](O[C@H]2C[C@@](C)(OC)[C@@H](O)[C@H](C)O2)[C@H](C)[C@@H](O[C@@H]2O[C@H](C)C[C@H](N(C)C)[C@H]2O)[C@](C)(O)C[C@@H](C)CN(C)[C@H](C)[C@@H](O)[C@]1(C)O [azithromycin]
IKKβ expression [1]: increases the overall expression of IKβ kinase (IKKB)

CCCCCCCC/C=C\CCCCCCCC(=O)OC[C@@H](COP(=O)(O)OCCN)OC(=O)CCCCCCC/C=C\CCCCCCCC (stereo in doubt) [DOPE, 1,2-dioleoyl-sn-glycero-3-phosphoethanolamine, reference compound]
canonical NFKB inhibition [2]: exhibited no activity | N:P ratio at which nucleic acid is complexed / migration inhibited [3]: unable to prevent migration

CC[C@H](NC(=O)[C@H](C)NC)C(=O)N1C[C@@H](O)C[C@H]1Cc1c(-c2[nH]c3cc(F)ccc3c2C[C@@H]2C[C@H](O)CN2C(=O)[C@H](CC)NC(=O)[C@H](C)NC)[nH]c2cc(F)ccc12 [birinapant]
IC50 [4]: 50 nM
